{
  "source": "patent US6429222B2",
  "about": "“1-(p-thienylbenzyl)imidazoles as agonists of angiotensin (1-7) receptors, processes for their preparation, their use, and pharmaceutical preparations comprising them” (priority 1999, dated 2002)",
  "key": {"[1]": {"tested_on": "isolated, working rat hearts", "test": "Test 3: Isolated, working rat hearts (Langendorff), coronary flow", "set-up": "species or system Wistar-Kyoto rats", "details": "10^−6 mol/l; for Coronary flow: treated hearts, n=4", "source_text": "Pharmacol. 8 (Suppl. 10) (1986) S91-S99.\nTest 3: Isolated, working rat hearts\nIsolated hearts of Wistar-Kyoto rats (280-300 g body weight) are perfused with a constant perfusion pressure of 60 mmHg according to the method of Langendorff using an oxygen-saturated (95% O2, 5% CO2), nonrecirculating, modified Krebs-Henseleit buffer solution (118 mmol/l of NaCl, 4.7 mmol/l of KCl, 2.5 mmol/l of CaCl2, 1.6 mmol/l of MgSO4, 24.9 mmol/l of NaHCO3, 1.2 mmol/l of KH2PO4, 5.5 mmol/l of glucose, and 2.0 mmol/l of sodium pyruvate). For the measurement of the coronary flow, a catheter having an electromagnetic measuring head placed in the pulmonary artery was used. After a 15-minute equilibration period, the heart is converted into the working mode, in which a preload of 15 mmHg and an afterload of 60 mmHg is set. The working load of the heart remains constant during the entire test time of 90 minutes. Flow and pressure signals for the analysis are recorded by means of a PLUGSYS measuring system (Hugo Sachs Elektronik). The analysis of the data is carried out at a collection frequency of 500 Hz, averaged every 2 seconds, using the software Aquire Plus VI.21f (PO-NE-MAH)."}, "[2]": {"tested_on": "human platelet-rich plasma", "test": "Test 4: Collagen-induced platelet aggregation in human platelet-rich plasma", "format": "cell-based", "details": "collagen + 30 μM compound, 37° C., 20 min incubation, n=6; collagen alone 92±2.7%", "protocol": "The action of compounds of formula (I) on collagen-induced platelet aggregation was investigated in human platelet-rich plasma, which is described, for example, in G.V. Born et al., Nature (1962).\nHuman platelet-rich plasma (PRP) from 6 blood donors was incubated with the test compound at 37° C. for 20 min, then activated with collagen, and the maximal aggregation of the platelets was quantified in % via light transmission."}},
  "data": [
    {"smiles": "CCCCOC(=O)NS(=O)(=O)c1sc(CC(C)C)cc1-c1ccc(Cn2c(-c3ccccc3)nc(OC)c2C=O)cc1", "note": "[Example 2, 5-Formyl-4-methoxy-2-phenyl-1-[[4-[2-(n-butyloxycarbonylsulfonamido)-5-isobutyl-3-thienyl]phenyl]methyl]imidazole]", "values": [
      {"measurement": "heart rate", "setting": "[1]; during the entire experiment", "result": "unchanged"},
      {"measurement": "Coronary flow", "setting": "[1]; time 0 min", "result": "8.92 ± 0.68", "unit": "mL/min"},
      {"measurement": "Coronary flow", "setting": "[1]; time 5 min", "result": "11.29 ± 0.90", "unit": "mL/min"},
      {"measurement": "Coronary flow", "setting": "[1]; time 10 min", "result": "12.17 ± 0.74", "unit": "mL/min"},
      {"measurement": "Coronary flow", "setting": "[1]; time 15 min", "result": "12.22 ± 0.10", "unit": "mL/min"},
      {"measurement": "platelet aggregation", "setting": "[2]", "result": "52±5.7", "unit": "% aggregation"}
    ]}
  ]
}
